Experimental findings from patent publication EP4631931A1, “HDAC INHIBITOR AND USE THEREOF” (Wigen Biomedicine Technology (Shanghai) Co., Ltd., priority 2022, dated 2024) are described below.

The test system of one data set is Jurkat cell. Kind of data set: Inhibition of Jurkat cell proliferation (CTG, intracellular ATP). Type of data set: cell-based. Particulars: Homo sapiens, 72 h, compared to DMSO group, read-out: Inhibitory activity against Jurkat cell proliferation (IC50). Here is the method: (§1) Jurkat or 293T cells were seeded into a 96-well plate at 3000 cells/well. After overnight adherence culture, the serially diluted compound in DMSO was added. After 72 h, the intracellular ATP level was determined by CTG. The IC50 for the inhibition of cell proliferation by the compounds was calculated compared to the DMSO group. Table 8. Inhibitory activity of compounds of the present disclosure against Jurkat/293T cell proliferation (IC50, µM)

The test system of another data set is 293T cell. Kind of data set: Inhibition of 293T cell proliferation (CTG, intracellular ATP). Particulars: Homo sapiens, HEK-293T, 72 h, compared to DMSO group, read-out: Inhibitory activity against 293T cell proliferation (IC50). Type of data set: cell-based. On the procedure:
as §1

Another data set deals with OVCAR 3 cells. Kind of data set: NK cell-mediated tumor cell killing (NK92 cells, GFP count). The data set is classed as cell-based. To be noted: Homo sapiens, 72 h compound, 1-4 h co-culture, compared to DMSO group, read-out: EC50 in promoting the NK92 cell-mediated OVCAR 3 cell death. On the procedure: OVCAR 3 cells […] expressing GFP were seeded into a 96-well plate at 4000 cells/well. After overnight adherence culture, the serially diluted compounds were added, and the plate was incubated for another 72 h. After the two types of cells were mixed and cultured for another 1-4 h, NK92 cells were removed by washing with PBS, and adherent GFP-positive tumor cells were counted. The EC50 of the compounds in promoting the NK92 cell-mediated OVCAR 3 cell death was calculated compared to the DMSO group. Table 11. NK cell-mediated tumor cell killing by compounds of the present disclosure

The subject of data set [1] is Mouse colon cancer MC38 cells. Kind of data set: In vivo efficacy in MC-38 model. Also on record: species or system C57BL6N mice. Particulars: small molecules 15mg/kg PO QD, PD-1 1mg/kg IV QW, BDO 2mg/kg IP QW, 21 days; for TGI(%): 6 mice per group. Here is the method:
Female C57BL6N mice (aged 6 weeks, 18-22 g) were provided by Vital River Laboratory Animal Technology Co., Ltd. (China) and used one week after quarantine and acclimation. All animals were kept in a room at 23±2 °C with a relative humidity of 50±5%, artificial lighting was provided from 08:00 to 20:00 every day, and the air was exchanged 13-18 times per hour. Mouse colon cancer MC38 cells were cultured conventionally in 1640 medium containing 10% fetal bovine serum in an incubator at 37 °C with 5% CO2. After being subcultured, the cells were collected when they reached the desired amount. The C57BL6N mice were subcutaneously injected with 2 × 10^6 MC38 cells on the right side to form tumors. After the tumors grew to about 100 mm^3, the animals were randomly grouped for administration. Tumor volumes were measured with a caliper on day 3, day 7, day 10, day 14, day 17, and day 21 after the administration. […] The toxicity of the compounds was evaluated according to the body weight and state of the mice.
Table 15. In vivo efficacy of some of the compounds of the present disclosure in MC-38 model

The nature of data set [2]: Metabolite identification in liver microsomes and hepatocytes from various species. The data set is classed as in vitro ADME. To be noted: 10 µM compound, 1.0 mg/mL liver microsomes, 37 °C, 120 min; mouse, rat, dog, monkey, human. On the procedure:
After the 10 µM compound was separately incubated with 1.0 mg/mL liver microsomes or hepatocytes (from 5 species: mouse, rat, dog, monkey, and human), and an NADPH regeneration system at 37 °C for 120 min, a stop solution was added to terminate the reaction, and the incubated samples were removed from the water bath. After the reaction was terminated, the samples were vortexed and then centrifuged at 4 °C and 3260× g for 15 min. After centrifugation, all the supernatants were transferred to a 96-well plate for direct use in LC-MS analysis, or subjected to dilution or concentration and reconstitution prior to injection. An LC-UV-HRMSn (n = 1-2) analytical method was established on LC-UV-HRMSn, and data acquisition was performed using SCIEX OS software. The parent drug and the metabolites could be analyzed by mass spectrometry with different scanning modes (MS/MS or IDA) and ultraviolet full-wavelength scanning (λ = 190-500 nm). By comparing the ultraviolet and mass spectra of the post-incubation samples with those of blank samples from the same species, potential metabolites were identified. The possible structures of the metabolites were inferred by comparative analysis of the collision-induced dissociation (CID) fragments of the test compounds and their metabolites. The metabolites and their relative abundances were summarized in a table for interspecies comparison.
For orientation: Microsomes from liver hold many membrane-bound enzymes, among them those of drug oxidation.

Data set [3] can be described thus: Pharmacokinetic experiment in rats. The data set is classed as in vivo. Particulars: female, rat, plasma. Here is the method:
Healthy female rats aged 6 to 8 weeks were intravenously administered and orally administered at doses of 1 mg/kg and 10 mg/kg. The rats were fasted overnight before the administration.
On the day of the experiment, animals in the intravenous group were given the corresponding compound by single injection via the tail vein at an administration volume of 10 mL/kg; and animals in the oral group were given the corresponding compound by single intragastric injection at an administration volume of 10 mL/kg. The sample collection time points were 0.083 h, 0.167 h, 0.5 h, 1 h, 2 h, 4 h, 8 h, and 24 h. About 200 µL of whole blood was collected through the neck at each time point and used to prepare plasma for concentration determination by high-performance liquid chromatography-tandem mass spectrometry (LC-MS/MS). The plasma concentrations were processed using a non-compartmental model of Winnolin pharmacokinetic software, and the pharmacokinetic parameters were calculated using a linear-log trapezoidal method. Table 14. Results of in vivo pharmacokinetic evaluation of compounds

Setting [4] is: Injection (1 mg/kg), intravenous.

A word on the pEC50: it is the negative decadic logarithm of the EC50, by convention in mol/L. By AUC(0-t) is commonly meant exposure summed from dosing to a finite time, without extrapolation to infinity. Low readings indicate less exposure, high ones more exposure. The clearance is the rate of elimination divided by the concentration. Higher therefore signals efficient removal. Usually half-life stands for the time in which the quantity being followed falls by half. The term Cmax denotes the peak of the concentration-time curve. For orientation: Tmax means the time from dosing to the highest level. By bioavailability is commonly meant dose-corrected exposure relative to a reference, in per cent. A lower bioavailability goes with little systemic uptake.

Molecules are shown by their SMILES. pEC50, pIC50: −log10 of the molar value.

For the compound `Nc1cc(F)ccc1NC(=O)c1ccc(CNC(=O)/C=C/c2cccnc2)cc1` [Chidamide, reference compound], the pIC50 with Jurkat cell is 5.79. Further, the pIC50 with 293T cell is 5.17. For the same compound, the pEC50 with OVCAR 3 cells was 6.79. In data set [1], the “Change in body weight” value is listed as “+21.1%” and the “TGI(%)” value is on record as 8.9%.
`[2H]c1cc(C(=O)Nc2ccc(F)cc2N)ccc1CNC(=O)/C=C/c1cccnc1` [Compound 5, (E)-N-(2-amino-4-fluorophenyl)-4-((3-(pyridin-3-yl)acrylamido)methyl)-3-d benzamide]: the pIC50 in the data set with Jurkat cell is 6.23. For the same compound, the pIC50 with 293T cell was less than 5.00. The pEC50 with OVCAR 3 cells is 7.47. Also, the “metabolic pathways and stability in liver microsomes from all the species” value in data set [2] is “simple metabolic pathways and good stability in liver microsomes from all the species”. In data set [3] (setting [4]), this compound gave an AUC(0-t) of 1260 ng·h/mL, a clearance of 12.9 mL/min/kg and a half-life of 6.54 h. Moreover, in data set [3] (Injection (1 mg/kg), intravenous, read-out: Vdss), the Vd is 2.42 L/kg. In data set [3] (Oral administration (10 mg/kg)), the AUC(0-t) was 5150 ng·h/mL, the concentration peaked (Cmax) at 3420 ng/mL, the Tmax was found to be 9.6 min and the bioavailability turned out to be 40.1%. Further, the half-life in data set [3] (Oral administration (10 mg/kg)) is 4.01 h. In data set [1], the “Change in body weight” value is on record as “+24.2%” and the “TGI(%)” value is recorded as 12.2%.
